Measurements reported in PubChem BioAssay (NCI).
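Assay format: 96-well plates, 48-hour exposure. The concentration for 50% growth inhibition is given as GI50. Definition used: TGI = concentration required for complete inhibition of growth.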

Assays:
Test in all cases: NCI-60 cell line screen, 48 h; in the data active = GI50 below about 0.43 µM; inactive = the rest
UO-31 renal = test system: UO-31 renal
SW-620 colon = test system: SW-620 colon
SK-MEL-2 melanoma = test system: SK-MEL-2 melanoma
T-47D breast = test system: T-47D breast
SR leukemia = test system: SR leukemia
MCF7 breast = test system: MCF7 breast
OVCAR-8 ovarian = test system: OVCAR-8 ovarian
SNB-75 CNS = test system: SNB-75 CNS
SN12C renal = test system: SN12C renal
HCC-2998 colon = test system: HCC-2998 colon
A498 renal = test system: A498 renal
M14 melanoma = test system: M14 melanoma
SF-539 CNS = test system: SF-539 CNS
A549 NSCLC = test system: A549 NSCLC
MOLT-4 leukemia = test system: MOLT-4 leukemia
HOP-62 NSCLC = test system: HOP-62 NSCLC
U251 CNS = test system: U251 CNS
HCT-15 colon = test system: HCT-15 colon
NCI-H23 lung = test system: NCI-H23 lung
HCT-116 colon = test system: HCT-116 colon
HS 578T breast = test system: HS 578T breast
MDA-MB-435 = test system: MDA-MB-435
ACHN renal = test system: ACHN renal
EKVX NSCLC = test system: EKVX NSCLC
HL-60(TB) leukemia = test system: HL-60(TB) leukemia
RPMI-8226 leukemia = test system: RPMI-8226 leukemia
SK-MEL-28 melanoma = test system: SK-MEL-28 melanoma
UACC-62 melanoma = test system: UACC-62 melanoma
PC-3 prostate = test system: PC-3 prostate
OVCAR-4 ovarian = test system: OVCAR-4 ovarian
MALME-3M melanoma = test system: MALME-3M melanoma
KM12 colon = test system: KM12 colon
UACC-257 melanoma = test system: UACC-257 melanoma
COLO 205 colon = test system: COLO 205 colon
CAKI-1 renal = test system: CAKI-1 renal
NCI/ADR-RES ovarian = test system: NCI/ADR-RES ovarian
HOP-92 NSCLC = test system: HOP-92 NSCLC
BT-549 breast = test system: BT-549 breast
OVCAR-3 ovarian = test system: OVCAR-3 ovarian
K-562 leukemia = test system: K-562 leukemia
NCI-H522 lung = test system: NCI-H522 lung
SF-295 CNS = test system: SF-295 CNS
LOX IMVI melanoma = test system: LOX IMVI melanoma
NCI-H226 lung = test system: NCI-H226 lung
SK-MEL-5 melanoma = test system: SK-MEL-5 melanoma
OVCAR-5 ovarian = test system: OVCAR-5 ovarian
786-0 renal = test system: 786-0 renal
NCI-H460 lung = test system: NCI-H460 lung
IGROV1 ovarian = test system: IGROV1 ovarian
DU-145 prostate = test system: DU-145 prostate
HT29 colon = test system: HT29 colon
SK-OV-3 ovarian = test system: SK-OV-3 ovarian
SF-268 CNS = test system: SF-268 CNS
TK-10 renal = test system: TK-10 renal
MDA-MB-231 breast = test system: MDA-MB-231 breast
CCRF-CEM leukemia = test system: CCRF-CEM leukemia
SNB-19 CNS = test system: SNB-19 CNS

CC(C)(C)Nc1nc2c(OCCc3ccccc3)cccn2c1-c1cccc(Oc2ccccc2)c1
83.9 µM: TGI (A498 renal)
41.2 µM: TGI (LOX IMVI melanoma)
80.7 µM: TGI (UO-31 renal)
inactive: GI50 (UO-31 renal) 3.13 µM | GI50 (SW-620 colon) 7.97 µM | GI50 (SK-MEL-2 melanoma) 5.16 µM | GI50 (T-47D breast) 3.13 µM | GI50 (SR leukemia) 12.3 µM | GI50 (MCF7 breast) 4.34 µM | GI50 (OVCAR-8 ovarian) 14.8 µM | GI50 (SNB-75 CNS) 5.53 µM | GI50 (SN12C renal) 5.17 µM | GI50 (HCC-2998 colon) 6.21 µM | GI50 (A498 renal) 8.91 µM | GI50 (M14 melanoma) 18.6 µM | GI50 (SF-539 CNS) 16.3 µM | GI50 (A549 NSCLC) 7.42 µM | GI50 (MOLT-4 leukemia) 11 µM | GI50 (HOP-62 NSCLC) 15.1 µM | GI50 (U251 CNS) 3.89 µM | GI50 (HCT-15 colon) 3.89 µM | GI50 (NCI-H23 lung) 5.86 µM | GI50 (HCT-116 colon) 3.42 µM | GI50 (HS 578T breast) 5.51 µM | GI50 (MDA-MB-435) 4.97 µM | GI50 (ACHN renal) 7.67 µM | GI50 (EKVX NSCLC) 4.54 µM | GI50 (HL-60(TB) leukemia) 18.6 µM | GI50 (RPMI-8226 leukemia) 3.4 µM | GI50 (SK-MEL-28 melanoma) 4.87 µM | GI50 (UACC-62 melanoma) 3.43 µM | GI50 (PC-3 prostate) 4 µM | GI50 (OVCAR-4 ovarian) 4 µM | GI50 (MALME-3M melanoma) 8.12 µM | GI50 (KM12 colon) 7.42 µM | GI50 (UACC-257 melanoma) 4.1 µM | GI50 (COLO 205 colon) 12.3 µM | GI50 (CAKI-1 renal) 9.11 µM | GI50 (NCI/ADR-RES ovarian) 7.51 µM | GI50 (HOP-92 NSCLC) 2.22 µM | GI50 (BT-549 breast) 3.48 µM | GI50 (OVCAR-3 ovarian) 3.71 µM | GI50 (K-562 leukemia) 6.18 µM | GI50 (NCI-H522 lung) 6.95 µM | GI50 (SF-295 CNS) 5.54 µM | GI50 (LOX IMVI melanoma) 8.54 µM | GI50 (NCI-H226 lung) 3.45 µM | GI50 (SK-MEL-5 melanoma) 4.95 µM | GI50 (OVCAR-5 ovarian) 17.8 µM | GI50 (786-0 renal) 3.8 µM | GI50 (NCI-H460 lung) 4.6 µM | GI50 (IGROV1 ovarian) 12.4 µM | GI50 (DU-145 prostate) 19.4 µM | GI50 (HT29 colon) 3.75 µM | GI50 (SK-OV-3 ovarian) 24.2 µM | GI50 (SF-268 CNS) 8.03 µM | GI50 (TK-10 renal) 26.9 µM | GI50 (MDA-MB-231 breast) 18.7 µM | GI50 (CCRF-CEM leukemia) 7.07 µM | GI50 (SNB-19 CNS) 6.62 µM
26.8 µM: TGI (SK-MEL-2 melanoma)
43.1 µM: TGI (SF-539 CNS)
7.08 µM: TGI (HOP-92 NSCLC)
53.8 µM: TGI (UACC-62 melanoma)
83 µM: TGI (MDA-MB-231 breast)
17.6 µM: TGI (SK-MEL-5 melanoma)
29.7 µM: TGI (BT-549 breast)
> 100 µM: TGI (SW-620 colon) | TGI (T-47D breast) | TGI (SR leukemia) | TGI (MCF7 breast) | TGI (OVCAR-8 ovarian) | TGI (SNB-75 CNS) | TGI (SN12C renal) | TGI (HCC-2998 colon) | TGI (M14 melanoma) | TGI (A549 NSCLC) | TGI (MOLT-4 leukemia) | TGI (HOP-62 NSCLC) | TGI (U251 CNS) | TGI (HCT-15 colon) | TGI (NCI-H23 lung) | TGI (HCT-116 colon) | TGI (HS 578T breast) | TGI (MDA-MB-435) | TGI (ACHN renal) | TGI (EKVX NSCLC) | TGI (HL-60(TB) leukemia) | TGI (RPMI-8226 leukemia) | TGI (SK-MEL-28 melanoma) | TGI (PC-3 prostate) | TGI (OVCAR-4 ovarian) | TGI (MALME-3M melanoma) | TGI (KM12 colon) | TGI (UACC-257 melanoma) | TGI (CAKI-1 renal) | TGI (NCI/ADR-RES ovarian) | TGI (OVCAR-3 ovarian) | TGI (K-562 leukemia) | TGI (NCI-H522 lung) | TGI (SF-295 CNS) | TGI (NCI-H226 lung) | TGI (OVCAR-5 ovarian) | TGI (786-0 renal) | TGI (NCI-H460 lung) | TGI (IGROV1 ovarian) | TGI (DU-145 prostate) | TGI (HT29 colon) | TGI (SK-OV-3 ovarian) | TGI (SF-268 CNS) | TGI (TK-10 renal) | TGI (CCRF-CEM leukemia) | TGI (SNB-19 CNS)
25.9 µM: TGI (COLO 205 colon)
